Measured values taken from patent US8022178B2, “Modified self-assembling peptides” (Massachusetts Institute of Technology, priority 2006, dated 2011).

Experiments:
[1] = test system: HUVEC (human umbilical vein endothelial cells); assay: HUVEC cultured 2-dimensionally on hydrogels: cell attachment and morphology; assay type: cell-based
Method: The effect of functional modified peptide matrix to HUVEC (human umbilical vein endothelial cells) was evaluated by culturing cells 2-dimensionally on the gel.
(§1) The peptide solutions shown in Table 19 were loaded in the culture inserts (10 mm diameter, Millicell-CM, Millipore) and gels were formed using cell culture medium (EGM-2-MV, Camblex). Collagen-1 and Matrigel were used as control matrices. HUVEC (human umbilical vein endothelial cells) were plated at 8×10^4 cells on the inserts and cultured up to 7 Days.

[2] = test system: HUVEC (human umbilical vein endothelial cells); assay: Endothelial cell migration from beads to hydrogels; assay type: cell-based; conditions: Day 2; compared to RAD; FIGS. 26-27
Method: Endothelial cell migration effect on the hydrogels was evaluated. The endothelial cell migration is important when the vessel has in-growth into the matrix. HUVEC (human umbilical vein endothelial cells) were seeded on Collagen coated Dextran beads (Cytodex3, microcarrier beads, Sigma), then transferred to different hydrogels which selected from Table 19.
FIGS. 26A-26F show the fluorescence microscopy image of beads on the peptide matrix at Day 1 and Day 2 after placing the beads. […] The white bar represents 100 um. On the Day 1, most of the cells stayed on the beads. On the Day 2, the cells were well migrated from the beads to Collagen, PRGmx and KLTmx gel compared to RAD.
The cells are counted in fluorescence microscopy image. The above observation were also confirmed in the graph.

[3] = test system: chick Chorioallantoic Membrane; assay: Chorioallantoic Membrane (CAM) assay of angiogenesis; assay type: in vivo, chicken; conditions: hydrogel placed Day 8, histology Day 12, FIG. 30
Method: In vivo study of angiogenesis was performed using Chorioallantoic Membrane (CAM) assay. At Day 8 of fertilized chicken egg incubation, hydrogels of 10 mm diameter with 1 mm thickness were transferred to chick Chorioallantoic Membrane. The hydrogels were selected from Table 19 and gels were formed before the transfer. On Day 12, CAMs were collected for histology. The angiogenesis inside and below the hydrogel were evaluated by histological cross section.

[4] = test system: HUVEC (human umbilical vein endothelial cells); assay: HUVEC DNA amount in the well after three days culture; assay type: cell-based; conditions: compared to RAD, FIG. 25
Method: as §1
The amount of DNA in the well after three days culture was evaluated in selected hydrogels of Table 19. The DNA amount is proportional to the number of the cells.

## COL: Collagen-1 gel (0.25%); Collagen I gel from rat tail (BD Bioscience), control matrix
[1]; HUVEC cultured on hydrogels
  Cell attachment: ++++ (++++: near confluence(>70%))
[1]; HUVEC on hydrogels for two days, confocal, FIGS. 24A-24M
  cell attachment compared to RAD: higher cell attachment
[2]
  cell migration from the beads to the hydrogel: well migrated
[3]
  angiogenesis inside and below the hydrogel: no angiogenesis both inside and below the hydrogel
[4]
  DNA amount in the well: statically higher
